From PMC2737144, “Characterization of an Enantioselective Odorant Receptor in the Yellow Fever Mosquito Aedes aegypti” (PLoS ONE, 2009)

Legend:
[1] = molecular target: T1, AaOR8/AaOR7 protein complex (Aedes aegypti, UniProt Q16MN0); assay: Two-microelectrode voltage clamp of Xenopus oocytes co-expressing AaOr8 and AaOr7; odorant-induced whole-cell currents; format: cell-based; conditions: Xenopus oocytes co-expressing AaOR8 and AaOR7, holding potential −80 mV, 8 sec odorant exposure, non-linear regression curve fit; read-out: EC50 (half maximal effective concentration) of AaOR8
T1 sequence (Q16MN0 32-422): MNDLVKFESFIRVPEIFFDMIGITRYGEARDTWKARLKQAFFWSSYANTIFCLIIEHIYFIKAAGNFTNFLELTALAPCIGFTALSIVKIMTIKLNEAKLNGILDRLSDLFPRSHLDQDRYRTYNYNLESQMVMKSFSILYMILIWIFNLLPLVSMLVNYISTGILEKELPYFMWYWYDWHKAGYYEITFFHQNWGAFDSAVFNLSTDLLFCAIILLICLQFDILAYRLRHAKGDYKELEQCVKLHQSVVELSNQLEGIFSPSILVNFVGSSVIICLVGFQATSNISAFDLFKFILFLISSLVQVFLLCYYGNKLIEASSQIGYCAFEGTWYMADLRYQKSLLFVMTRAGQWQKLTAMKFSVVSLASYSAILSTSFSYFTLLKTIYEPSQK
T1 sequence (Q178U6 1-478 partner): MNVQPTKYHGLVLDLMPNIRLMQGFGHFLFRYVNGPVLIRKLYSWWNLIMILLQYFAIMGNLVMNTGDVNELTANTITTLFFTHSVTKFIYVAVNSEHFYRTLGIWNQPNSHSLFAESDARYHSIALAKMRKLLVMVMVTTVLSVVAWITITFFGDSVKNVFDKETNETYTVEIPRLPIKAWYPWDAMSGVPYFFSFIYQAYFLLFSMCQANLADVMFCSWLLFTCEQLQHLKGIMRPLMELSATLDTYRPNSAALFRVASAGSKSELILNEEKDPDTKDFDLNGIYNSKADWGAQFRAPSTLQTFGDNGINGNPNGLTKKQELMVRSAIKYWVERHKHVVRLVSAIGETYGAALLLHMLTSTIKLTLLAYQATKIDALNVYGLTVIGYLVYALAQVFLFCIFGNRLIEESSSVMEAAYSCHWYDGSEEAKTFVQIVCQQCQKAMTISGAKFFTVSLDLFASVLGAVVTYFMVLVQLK
Procedure: Along with AaOr8, we co-expressed AaOr7 in Xenopus oocytes and electrophysiological responses (Fig. 1B) to each enantiomer were measured using the two-microelectrode voltage clamp technique. […] We established the concentration-response relationships for each compound (Fig. 1C) and their associated half maximal effective concentration (EC50) as a sensitivity criterion. […] Part of the response to the (S)-(+)-enantiomer may have been caused by the presence of trace amounts (1 part per thousand) of the (R)-(—)-enantiomer (see Material & Methods).
AaOr7 and AaOr8 cRNAs were synthesized from linearized pSP64DV expression vectors (Dr. Zwiebel, Vanderbilt University) using the mMESSAGE mMACHINE SP6 kit (Ambion). Following mechanical disruption of the Xenopus ovaries, stage […] oocytes were treated for 30 min at room temperature under 150 rpm shaking with a 2 mg/mL collagenase (SIGMA, C6895) solution in OR-2 buffer (5 mM HEPES, 1 mM Na2HPO4, 82.5 mM NaCl, and 2.5 mM MgCl2 [pH 7.6]). All procedures were performed in accordance with the NIH Institutional Animal Care and Use Committee and NIH guidelines. Oocytes were subsequently washed 5 times with OR-2 buffer, 5 times with MBSH buffer (10 mM HEPES, 2.4 mM NaHCO3, […], 1 mM KCl, 0.82 mM MgSO4, 0.41 mM CaCl2 and 0.33 mM (CaNO3)2, [pH 7.6]), 5 times with MBSH supplemented with 50 µg/ML gentamycin and 5 times with Ringer's buffer (96 mM NaCl, 2 mM KCl, 5 mM MgCl2, 6H2O, 5 mM HEPES and 0.8 mM CaCl2 [pH 7.6]) supplemented with 5% heat-inactivated horse serum, 50 µg/mL tetracycline, 100 µg/mL streptomycin and 550 µg/mL sodium pyruvate. Individual oocytes were allowed to recover overnight prior to injection with 10 ng of each cRNA and were recorded 4 to 6 days post-injection.
Whole-cell currents were recorded using the two-microelectrode voltage clamp technique, [58]. Odorants were dissolved in dimethyl sulfoxide (DMSO) at a 1∶10 ratio so that stock solutions could be made. Prior to recording, stock solutions were diluted in Ringer's solution [pH 7.6] (96 mM NaCl, 2 mM KCl, 5 mM MgCl2, 5 mM HEPES and 0.8 mM CaCl2) to the indicated concentrations before being applied to Xenopus oocytes in a RC-3Z oocyte recording chamber (Warner Instruments). Oocytes were continuously perfused by either pure Ringer's solution or exposed for 8 sec to serial dilutions of odorants dissolved in Ringer's solution. Odorant-induced currents were recorded with an OC-725C oocyte clamp (Warner Instruments) at a holding potential of −80 mV. Between stimulations, oocytes were allowed to return to their membrane resting potential by washing out the odorants using pure Ringer's solution. Data acquisition and analysis were carried out with Digidata 1440A and pCLAMP10 software (Axon Instruments).
Statistical analyses (GraphPad Prism5 Software, Inc.) of the logEC50 means were performed using an ordinary one-way ANOVA in conjunction with the Tukey Kramer multiple comparison post test (95% confidence interval). […] In all figures, graphical results are shown as means and standard error of the mean for a minimum of six independent oocytes. EC50 values for individual compounds were extrapolated using the non-linear regression curve fit function provided in Prism5.

[2] = system: Apis mellifera OR11 (AmOR11); conditions: Xenopus oocytes; cited from earlier work
Bombyx mori OR1 (BmOR1) = conditions: oocyte expression system; cited from earlier work

Row | SMILES | EC50 [1] [µM] | also measured
1 | CCCCCC(O)CC (stereo not drawn) [3-Octanol] | 5.82 | –
2 | CC(=O)CCCCCC=CC(=O)O [9-oxo-2-decenoic acid] | – | concentration range of AmOR11 response [2]: nanomolar range
3 | C=C[C@@H](O)CCCCC [(S)-(+)-1-octen-3-ol] | 17.2 | –
4 | CCC/C=C\C=C\CCCCCCCCCO [bombykol] | – | concentration range of BmOR1 response (Bombyx mori OR1 (BmOR1)): micromolar range
5 | C=CCC(O)CCCC (stereo not drawn) [1-Octen-4-ol] | 39.1 | –
6 | C=CC(=O)CCCCC [1-Octen-3-one] | 23 | –
7 | C=C[C@H](O)CCCCC [(R)-(—)-1-octen-3-ol] | 0.158 | –
8 | C=CC(O)CCCCCC (stereo not drawn) [1-Nonen-3-ol] | 5.14 | –
9 | C=CC(O)CCCC (stereo not drawn) [1-Hepten-3-ol] | 17 | –
